Reference: patent US20240262866A1, “METHOD FOR PREPARING ANIDULAFUNGIN DERIVATIVE” (Shanghai Senhui Medicine Co., Ltd., priority 2021, published 2024)
Read-outs that look alike come from different tables or passages of the source. *1 amine or outer side, *2 acyl side, *3 side chain or, on linkers, in order; H or OH if unused. Where a SMILES comes first, the peptide text is derived from it. Bridges are numbered along the chain shown (N, C = ends). [ ]: non-standard residue; d: D form. The star is where a group is joined. pTerphenylCO(4''-OnC5H11) = CCCCCOc1ccc(-c2ccc(-c3ccc(C(=O)*)cc3)cc2)cc1; Orn(4R-OH,5R-OH) = O=C([C@H](C[C@@H](O)[C@@H](O)N[*:3])N[*:1])[*:2]; hTyr(3S-OH,4S-OH) = N[C@H](C(=O)O)[C@H](O)[C@@H](O)c1ccc(O)cc1; Pro(3S-OH,4S-Me) = C[C@H]1CN[C@H](C(=O)O)[C@H]1O; Hyp = O=C(O)[C@@H]1C[C@@H](O)CN1

Experiments:
[1] = system: Aspergillus flavus ATCC 28539; assay: MEC assay (CLSI M38-A2), Aspergillus flavus ATCC 28539; format: cell-based; conditions: first batch; 28° C., 21-26 h
Description: (§1) After a test compound was serially diluted, an MIC (minimum inhibitory concentration) assay was performed on the standard Candida strain and an MEC (minimum effective concentration) assay on the standard Aspergillus strain. The MIC assay was performed according to the guidelines of the Clinical and Laboratory Standards Institute (CLSI M27-A3) and the MEC assay according to the guidelines of the Clinical and Laboratory Standards Institute (CLSI M38-A2).
Aspergillus was passaged onto an SDA plate and cultured at 35° C. for 48 h to 7 d to induce sporulation. Colonies on the plate were covered with about 1 mL of 0.85% normal saline or sterile water (polysorbate 20 was added at a final concentration of 0.1%-0.01%). The medium was gently wiped on its surface with a tip or a sterile cotton swab (be careful not to break the medium), and the spore hyphae suspension was transferred to a sterile tube and let stand for 3-5 min so that the heavy particles settled. The homogeneous upper layer of the suspension was transferred to a new sterile tube, which was then sealed and vortexed for 15 s (be careful as the suspension may produce an aerosol when the cover is removed). The concentration of the suspension was adjusted until an OD value of 0.09-0.13 was achieved using a spectrophotometer at 530 nm. The suspension was 50-fold diluted with 1×RPMI 1640. 100 μL of sample was added to each well of the 96-well plate within 2 h after dilution (the final spore concentration in the susceptibility testing plate was at 0.4×10^4 to 5×10^4 CFU/mL).
Colony counting: The suspension diluted with RPMI 1640 was further diluted 10-fold, and 10 μL of the dilution was applied to an SDA plate, cultured at 28° C., and observed every day; colonies were immediately counted upon being visible to the naked eye.
(§2) For echinocandin drugs, Aspergillus was incubated at 28° C. for 21-26 h, and then the MEC results were read.
(§3) • Yeast-type fungi: A disposable sealing film was applied to the 96-well plate, and the mixture was well mixed by shaking. Observation was performed through a plate reader with the naked eye. Comparisons were made to the growth control, and the minimum compound concentration corresponding to ≥50% growth inhibition was defined as MIC. Pictures were taken and saved using an automatic plate reader. • Aspergillus: For echinocandin drugs, comparisons were made to the growth control under a plate reader, and the minimum drug concentration that could cause the hyphae to form small, round, compact hyphal particles was defined as MEC. For accurate determination of MEC values, the plate must not be vortexed before reading.

[2] = Pharmacokinetic study after single intravenous injection; format: in vivo, SD rats; conditions: Sprague-Dawley, rat, plasma, 10 mg/kg i.v.; for AUC(0-t): read-out: AUC0-96; for Vd: read-out: VdSS
Description: (§4) 12 SD rats were divided into 2 groups of 6 (half are male and half female). […] The body weights were measured once before administration. Administration was performed by single intravenous injection for 20 min per animal. PK measurement was performed once before administration and 5 min, 30 min, 1 h, 4 h, 8 h, 24 h, 48 h, 72 h and 96 h after administration. A histamine assay was performed once before administration and 30 min, 4 h, 8 h and 24 h after administration.

plasma histamine = assay: Plasma histamine assay after single intravenous injection; format: in vivo, SD rats
Description: as §4

[3] = system: Candida parapsilosis ATCC 22019; assay: MIC assay (CLSI M27-A3), Candida parapsilosis ATCC 22019; format: cell-based; conditions: first batch; 24 h, ≥50% growth inhibition; quality control strain
Description: as §1
(§5) The frozen strain was passaged at least twice, and a single colony was picked and resuspended in normal saline or sterile water in a tube. […]
as §2
as §3, with “Comparisons were made to the growth control, and the minimum compound concentration corresponding to ≥50% growth inhibition was defined as MIC.” left out

[4] = system: Candida glabrata ATCC 15126; assay: MIC assay (CLSI M27-A3), Candida glabrata ATCC 15126; format: cell-based; conditions: first batch; 24 h, ≥50% growth inhibition
Description: as §1, §5, §2
as §3, with “Comparisons were made to the growth control, and the minimum compound concentration corresponding to ≥50% growth inhibition was defined as MIC.” left out

Candida krusei ATCC 6258 = assay: MIC assay (CLSI M27-A3), Candida krusei ATCC 6258; format: cell-based; conditions: first batch; 24 h, ≥50% growth inhibition; quality control strain
Description: as §1, §5, §2
as §3, with “Comparisons were made to the growth control, and the minimum compound concentration corresponding to ≥50% growth inhibition was defined as MIC.” left out

[5] = system: Candida tropicalis ATCC 750; assay: MIC assay (CLSI M27-A3), Candida tropicalis ATCC 750; format: cell-based; conditions: first batch; 24 h, ≥50% growth inhibition
Description: as §1, §5, §2
as §3, with “Comparisons were made to the growth control, and the minimum compound concentration corresponding to ≥50% growth inhibition was defined as MIC.” left out

[6] = system: Meyerozyma guilliermondii ATCC 6260; assay: MIC assay (CLSI M27-A3), Meyerozyma guilliermondii ATCC 6260; format: cell-based; conditions: first batch; 24 h, ≥50% growth inhibition
Description: as §1, §5, §2
as §3, with “Comparisons were made to the growth control, and the minimum compound concentration corresponding to ≥50% growth inhibition was defined as MIC.” left out

[7] = system: Candida albicans ATCC 90029; assay: MIC assay (CLSI M27-A3), Candida albicans ATCC 90029; format: cell-based; conditions: first batch; 24 h, ≥50% growth inhibition
Description: as §1, §5, §2
as §3, with “Comparisons were made to the growth control, and the minimum compound concentration corresponding to ≥50% growth inhibition was defined as MIC.” left out

[8] = system: Candida albicans (azole drug-resistant strain) R358; assay: MIC assay (CLSI M27-A3), Candida albicans azole drug-resistant strain R358; format: cell-based; conditions: second batch; 24 h
Description: as §1, §5, §2
as §3, with “Comparisons were made to the growth control, and the minimum compound concentration corresponding to ≥50% growth inhibition was defined as MIC.” left out

SD rats = assay: General state observation after single intravenous injection; format: in vivo; conditions: 10 mg/kg single intravenous injection, day of administration
Description: as §4

[9] = system: Candida glabrata ATCC 36583; assay: MIC assay (CLSI M27-A3), Candida glabrata ATCC 36583; format: cell-based; conditions: second batch; 24 h
Description: as §1, §5, §2
as §3, with “Comparisons were made to the growth control, and the minimum compound concentration corresponding to ≥50% growth inhibition was defined as MIC.” left out

[10] = system: Candida albicans (azole drug-resistant strain) R357; assay: MIC assay (CLSI M27-A3), Candida albicans azole drug-resistant strain R357; format: cell-based; conditions: second batch; 24 h
Description: as §1, §5, §2
as §3, with “Comparisons were made to the growth control, and the minimum compound concentration corresponding to ≥50% growth inhibition was defined as MIC.” left out

[11] = system: Candida albicans ATCC 90028; assay: MIC assay (CLSI M27-A3), Candida albicans ATCC 90028; format: cell-based; conditions: second batch
Description: as §1, §5, §2
as §3, with “Comparisons were made to the growth control, and the minimum compound concentration corresponding to ≥50% growth inhibition was defined as MIC.” left out

[12] = system: Candida tropicalis (amphotericin-resistant strain) ATCC 200956; assay: MIC assay (CLSI M27-A3), Candida tropicalis amphotericin-resistant strain ATCC 200956; format: cell-based; conditions: second batch; 24 h
Description: as §1, §5, §2
as §3, with “Comparisons were made to the growth control, and the minimum compound concentration corresponding to ≥50% growth inhibition was defined as MIC.” left out

[13] = system: Candida albicans ATCC 44858; assay: MIC assay (CLSI M27-A3), Candida albicans ATCC 44858; format: cell-based; conditions: second batch; 24 h
Description: as §1, §5, §2
as §3, with “Comparisons were made to the growth control, and the minimum compound concentration corresponding to ≥50% growth inhibition was defined as MIC.” left out

Q: For CCCCCOc1ccc(-c2ccc(-c3ccc(C(=O)N[C@H]4C[C@@H](O)[C@@H](O)NC(=O)[C@@H]5[C@@H](O)[C@@H](C)CN5C(=O)[C@H]([C@@H](C)O)NC(=O)[C@H]([C@H](O)[C@@H](O)c5ccc(O)cc5)NC(=O)[C@@H]5C[C@@H](O)CN5C(=O)[C@H]([C@@H](C)O)NC4=O)cc3)cc2)cc1 [Anidulafungin] ({pTerphenylCO(4''-OnC5H11)}-[Orn(4R-OH,5R-OH)]T[Hyp][hTyr(3S-OH,4S-OH)]T[Pro(3S-OH,4S-Me)]; lactam 1-C), which “MEC Aspergillus flavus ATCC 28539” value [1] is on record?
A: 0.031 µg/mL

Q: What does the source list for CCCCCOc1ccc(-c2ccc(-c3ccc(C(=O)N[C@H]4C[C@@H](O)[C@@H](OC[C@H]5CCC[N+]5(C)C)NC(=O)[C@@H]5[C@@H](O)[C@@H](C)CN5C(=O)[C@H]([C@@H](C)O)NC(=O)[C@H]([C@H](O)[C@@H](O)c5ccc(O)cc5)NC(=O)[C@@H]5C[C@@H](O)CN5C(=O)[C@H]([C@@H](C)O)NC4=O)cc3)cc2)cc1 [Compound of formula (I)]?
A: AUC(0-inf) ([2]; female SD rats): 195 µg·h/mL; Cmax ([2]; female SD rats): 9300 ng/mL; clearance ([2]; female SD rats): 0.9 mL/min/kg; half-life ([2]; female SD rats): 1530 min; AUC(0-t) ([2]; female SD rats): 180 µg·h/mL; Vd ([2]; female SD rats): 1.8 L/kg; AUC(0-inf) ([2]; male SD rats): 191 µg·h/mL; Cmax ([2]; male SD rats): 8000 ng/mL; clearance ([2]; male SD rats): 0.9 mL/min/kg; half-life ([2]; male SD rats): 1660 min; AUC(0-t) ([2]; male SD rats): 174 µg·h/mL; Vd ([2]; male SD rats): 1.9 L/kg; ability to induce increases in the histamine level in rats (plasma histamine; same dose (10 mg/kg) i.v., compared with rezafungin acetate): significantly lower; MEC Aspergillus flavus ATCC 28539 [1]: 0.031 µg/mL

Q: Which results are given for Caspofungin acetate?
A: MIC Candida parapsilosis ATCC 22019 [3]: 1 µg/mL; MIC Candida glabrata ATCC 15126 [4]: 0.25 µg/mL; MIC Candida krusei ATCC 6258 (Candida krusei ATCC 6258): 1 µg/mL; MIC Candida tropicalis ATCC 750 [5]: 0.016 µg/mL; MIC Meyerozyma guilliermondii ATCC 6260 [6]: 1 µg/mL; MIC Candida albicans ATCC 90029 [7]: 0.063 µg/mL; MEC Aspergillus flavus ATCC 28539 [1]: 0.031 µg/mL

Q: Which results are given for Rezafungin acetate?
A: MIC Candida albicans (azole drug-resistant strain) R358 [8]: 0.25 µg/mL; general state observation (SD rats): transient slight decrease in activity occurred in 2 females; MIC Candida glabrata ATCC 36583 [9]: 0.25 µg/mL; MIC Candida parapsilosis ATCC 22019 [3]: 2 µg/mL; fold higher mean plasma histamine concentration than group 1 (plasma histamine; 30 min after administration, 10 mg/kg i.v., p=0.046): 4.5 times; MIC Candida glabrata ATCC 15126 [4]: 0.125 µg/mL; MIC Candida krusei ATCC 6258 (Candida krusei ATCC 6258): 0.25 µg/mL; MIC Candida albicans (azole drug-resistant strain) R357 [10]: 0.25 µg/mL; MIC Candida albicans ATCC 90028 ([11]; 24 h): 0.25 µg/mL; MIC Candida albicans + 50% human serum ATCC 90028 ([11]; + 50% human serum): 0.25 µg/mL; MIC Candida tropicalis ATCC 750 [5]: 0.016 µg/mL; MIC Meyerozyma guilliermondii ATCC 6260 [6]: 2 µg/mL; MIC Candida albicans ATCC 90029 [7]: 0.125 µg/mL; MIC Candida tropicalis (amphotericin-resistant strain) ATCC 200956 [12]: 0.25 µg/mL; MIC Candida albicans ATCC 44858 [13]: 0.25 µg/mL; MEC Aspergillus flavus ATCC 28539 [1]: 0.031 µg/mL
